Source: US7566697B2, “Carboxy protection strategies for acidic C-terminal amino acids in chemical ligation of oligopeptides” (Amylin Pharmaceuticals, Inc., priority 2002, dated 2009)
Residues, ends and D or L forms follow the SMILES beside them. Primed or numbered codes have the meaning given here. No end group written: not given here. *: point of attachment. diMeOPac = (2',4'-dimethoxy)phenacyl ester on the Asp side chain, COc1ccc(C(=O)C*)c(OC)c1; Fmoc = O=C(OCC1c2ccccc2-c2ccccc21)*; X1 = CC(O*)C(=O)c1ccccc1; OPac′ = phenacyl ester; X2 = ClC(Cl)(Cl)CO*

How the values were obtained:
SV8 protease = SV8 protease (Staphylococcus aureus, UniProt P0C1U8); settings: 1 unit/20 μg, 24 hours at 37° C.
Sequence of SV8 protease (P0C1U8 69-336): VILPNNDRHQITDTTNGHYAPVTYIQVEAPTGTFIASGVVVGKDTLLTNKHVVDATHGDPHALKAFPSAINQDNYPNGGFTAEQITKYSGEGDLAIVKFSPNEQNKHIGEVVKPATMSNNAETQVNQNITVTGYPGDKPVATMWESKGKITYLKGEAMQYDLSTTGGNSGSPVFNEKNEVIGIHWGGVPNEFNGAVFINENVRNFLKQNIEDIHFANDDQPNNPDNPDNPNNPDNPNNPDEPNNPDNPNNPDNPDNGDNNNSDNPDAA
Experimental: Peptides were digested using the enzyme SV8 protease. The peptides, solubilized to a final 5 mM concentration in 0.1 M NH4HCO3 and 0.3% BME, were digested by adding the enzyme solution (250 unit/ml), keeping the enzyme/peptide ratio of 1 unit/20 μg. The reaction was stopped after 24 hours at 37° C. by treatment with equal volumes of 10% TCEP, and extent of digestion assayed by RP-HPLC. Digested fragments were characterized by ESI-MS.

[1] = buffer, pH 6.5
Experimental: The C-terminal unprotected peptide (1.5 equivalent) and the N-terminal peptide (1 equivalent) were solubilized in freshly degassed 6M guanidinium hydrochloride, 0.2 M sodium phosphate, pH 7.5 buffer at a concentration of 2.5 mM each. After addition of 1% thiophenol and 1% benzyl mercaptan the pH was adjusted to 6.5 (or different thiols concentration or pH as reported in the text). Aliquots of this solution were treated with equal volumes of BME for 5 minutes and then with 10% TCEP for 10 minutes to completely hydrolyse any thiol adduct before HPLC analysis. Ligation reaction analysis was conducted using a gradient starting from 10% of B with a gradient slope of 1.66% of B per minute. Base line resolution of the different isomerization product was achieved using a gradient starting at 20% of B and with an increase of 0.33% B.

| Molecule | digestion by SV8 protease (SV8 protease) | Hydrolysis t1/2 [1] [h] | half-life in the ligation condition [1] |
| --- | --- | --- | --- |
| LYRAD(β)CSYUFL [product 6] | unaffected by the enzyme |  |  |
| LYRAE(γ)CSYRFL [product 7] | unaffected by the enzyme |  |  |
| Ac-D(OPac)YAKYAKL (Ac-D(OPac′)YAKYAKL) |  | 1.2 |  |
| Ac-D(diMeOPac)YAKYAKL [OdiMeOPac] |  | 3.8 |  |
| CC(C)C[C@H](NC(=O)[C@H](CCCCN)NC(=O)[C@H](C)NC(=O)[C@H](Cc1ccc(O)cc1)NC(=O)[C@H](CCCCN)NC(=O)[C@H](C)NC(=O)[C@H](Cc1ccc(O)cc1)NC(=O)[C@H](CC(=O)OCC(Cl)(Cl)Cl)NC(=O)OCC1c2ccccc2-c2ccccc21)C(=O)O [Troc, Fmoc-D(Troc)YAKYAKL] (Fmoc-D(X2)YAKYAKL-OH) |  | 1.5 | less than 2 hours |
| CC(=O)N[C@@H](CC(=O)OC(C)C(=O)c1ccccc1)C(=O)N[C@@H](Cc1ccc(O)cc1)C(=O)N[C@@H](C)C(=O)N[C@@H](CCCCN)C(=O)N[C@@H](Cc1ccc(O)cc1)C(=O)N[C@@H](C)C(=O)N[C@@H](CCCCN)C(=O)N[C@@H](CC(C)C)C(=O)O (some centres unmarked) [OMop, Ac-D(OMop)YAKYAKL] (Ac-D(X1)YAKYAKL-OH) |  | 9.9 | 500 h |
